US20250367209A1 (SOUTHERN RESEARCH INSTITUTE, priority 2022, published 2025)
Read-outs that look alike come from different tables or passages of the source.

Tests used:
[1] = target: Tau-FynSH3 interaction (Homo sapiens (Human), UniProt P10636); test: Tau-FynSH3 AlphaScreen; type: binding
From the text: Human Fyn-SH3 domain with GST-tag at the N-terminus and a Strep-tag II ([…]) at the C-terminus (GST-Fyn-SH3-Strep) was cloned into pPR-IBA1 vector (IBA Lifesciences) (Cochran, et al. (2014) J. Biomol. Screen. 19, 1338-1349). Codon-optimized human 4R2N Tau for E. coli expression with a Strep-tag II at the C-terminus (His-Tau-Strep) was cloned into pET-28a(+) vector (Novagen). The constructs were transformed into E. coli BL-21(DE3) competent cells (Novagen). For GST-Fyn-SH3-Strep purification, a single colony was inoculated in Luria-Bertani (LB) broth at 37° C. overnight. 10 mL cell culture was added into 500 mL LB medium and cultured at 37° C. 0.5 mM Isopropyl β-D-1-thiogalactopyranoside (IPTG) was added into the culture when OD600 reached 0.7. Cells were further cultured at 25° C. for 4 hours and harvested. Cell pellet was resuspended in lysis buffer (20 mM Tris pH 7.9, 300 mM NaCl, 1 mM TCEP) with 1 tablet of EDTA-free protease inhibitors (ThermoFisher) and 1 mg/ml lysozyme. Cells were disrupted by sonication and debris was removed by centrifugation at 9500 rpm for 1 hour. Supernatant was loaded onto a glutathione-sepharose column (Cytiva). The column was washed in lysis buffer and protein eluted in lysis buffer containing 25 mM reduced glutathione. For His-Tau-Strep protein purification, cells were inoculated in LB broth medium and cultured at 37° C. overnight. A 10 mL overnight culture was added to 500 mL of auto-induction medium (Studier, F. W. (2005) Protein Expr Purif 41, 207-34) and cells were cultured at 37° C. for about 5 hours. The temperature was lowered to 18° C., and cells were cultured overnight. Cells were harvested and resuspended in lysis buffer with 20 mM imidazole, protease inhibitors, and lysozyme. Cells were disrupted by sonication and cell pellets were spun down at 9500 rpm for 1 hour. Supernatant was loaded onto Ni-NTA column (Cytiva) and the column was washed in lysis buffer with 20 mM imidazole. His-Tau-Strep protein was eluted in lysis buffer containing 400 mM imidazole. Both eluted GST-Fyn-SH3-Strep and His-Tau-Strep protein solutions were passed through G-25 desalting column (Cytiva) with lysis buffer and loaded onto high capacity Strep-Tactin column (IBA Lifesciences). The columns were washed in Buffer W (IBA Life sciences) and proteins were eluted in Buffer E (IBA life sciences). The eluted proteins were passed through G-25 desalting column again. Both GST-Fyn-Strep and His-Tau-Strep proteins were concentrated and diluted 1:1 in ethylene glycol as a cryoprotectant for storage at −80° C.
AlphaScreen was conducted with 10 µg/mL of glutathione donor beads (PerkinElmer, Waltham, MA) and nickel chelate acceptor beads (PerkinElmer) in 10 mM Bis-Tris (pH 7.0), 1 mM TCEP, 0.02% casein, and 0.1% Tween-20. Compounds were plated first followed by addition of one the proteins at 600 nM and incubation for 30 min. The second protein was added and incubated for 30 mn, then the beads were added simultaneously and the final mixture was incubated for 2 hours. Experiments were conducted in 384-well plates (6007290; PerkinElmer) and results were read on a PHERAstar plate reader (BMG Labtech, Cary, NC).
˜50,000 compounds from the Enamine and Southern Research libraries were screened to identify Tau-FynSH3 interaction inhibitors using an AlphaScreen assay (Cochran, et al. (2014) J. Biomol. Screen. 19, 1338-1349). Compounds that were >3 standard deviations above mean inhibition were selected, yielding 1,852 hits (FIG. 1A). […]. These 39 compounds were tested in a live-cell BRET assay to measure Tau-Fyn interaction in cells. […]. Screen. 19, 1338-1349).

[2] = Solubility; type: physicochemical; conditions: for ADME Sol (μM): Table 3; for Solubility: Table 2
[3] = Metabolic stability in mouse liver microsomes; type: in vitro ADME; conditions: for half-life: mouse, liver microsomes, Table 3, read-out: ADME t1/2 (min): MLMt1/2
[4] = Metabolic stability in human liver microsomes; type: in vitro ADME; conditions: Table 3, read-out: ADME t1/2 (min): HLMt1/2
From the text: (§1) A computational analysis of the top five hits was then completed to assess the physical attributes of the compounds emerging from the HTS. The target profile for drug-like properties included evaluation of molecular weight (MW), total polar surface area (PSA, the surface sum of all polar atoms on the molecule), solubility, metabolic stability, and partition coefficient (LogD). In general, MW<[…] and PSA <70 Å^2 were targeted, which generally allows for blood-brain barrier (BBB) permeability. Compounds with PSA >100 A^2 are generally poor at permeating cell membranes. Solubility was targeted at >10 μM at pH 7.4 and 40-60% of compound remaining after 60 minutes of incubation in mouse or human liver microsomes (an indicator of compound stability after first-pass metabolism). LogD is the log of the ratio of concentrations of a compound in two immiscible solvents at equilibrium. Values ranging from 2-4 were targeted, typical for CNS drugs. Based on these criteria, compound no. 55 was selected as the top hit for optimization. Compound no.

[5] = Partition coefficient (LogD); type: physicochemical; conditions: Table 3; read-out: ADME LogD
From the text: as §1

[6] = test system: primary rat neurons; test: Modified MTT assay of Aβ toxicity in primary neurons; type: cell-based; conditions: compound 0.3, 3 or 15 μM, 90-minute pretreatment, 2.5 μM Aβ, 24 hours
From the text: Primary neuron cultures: All animal procedures were approved by the Institutional Animal Care and Use Committee at the University of Alabama at Birmingham (UAB). As before (Rush, et al. (2020) Neurobiol Dis 134, 104668; Voskobiynyk, et al. (2020) eLife 9, e57354), primary rat neurons were isolated from timed-pregnant Sprague-Dawley rats. Briefly, dams were euthanized with isoflurane anesthesia asphyxiation, and hippocampal tissue was isolated from E19 embryos in Hibernate E, then digested in papain for 10 minutes at 37° C. Neurons were triturated into a single cell suspension in Neurobasal supplemented with B-27, L-Glutamine, and 10% FBS, then plated in 96-well plates coated with PDL and laminin at 30,000 neurons per well in 200 uL medium or in 24-well coated plates with or without coverslips at 50,000 per well. Cultures were maintained at 37° C. with 5% CO2. Twenty-four hours after plating (DIV1), two 50% media changes with Neurobasal plus B-27 and L-Glutamine without FBS, and 5 μM cytosine β-D-arabinofuranoside was added to prevent glial proliferation. 50% media changes were performed at DIV7 and DIV14 with serum-free supplemented Neurobasal and experiments were started at DIV19.
Aβ oligomer preparation: As before (Rush, et al. (2020) Neurobiol Dis 134, 104668), lyophilized recombinant Aβ42 was dissolved in HFIP, dried overnight, then stored at −20° C. until oligomerization. To oligomerize, Aβ was dissolved in DMSO to 1 mM, then diluted to 100 µM in PBS, then sonicated and left on ice for 24 hours. Immediately prior to use, Aβ was centrifuged at 4° C. for 10 minutes at 14,000×g. Vehicle was prepared as well in identical fashion except lacking the Aβ peptide.
Aβ toxicity assays: The modified MTT and MAP2 assays were adapted from a recent study (Rush, et al. (2020) Neurobiol Dis 134, 104668). Briefly, at DIV19, media on the neurons was reduced to […], then compound was added to final concentration of 0 μM, 0.3 μM, 3 μM, or 15 μM with even amounts of DMSO. After 90-minute pretreatment with compound, 2.5 μM Aβ was added.
The modified MTT assay was performed 24 hours after Aβ application. 100 μM MTT was applied to neurons and incubated at 37° C. for one hour. Media was removed, then replaced with 15 μL 1.6% Tween20 in PBS and incubated on a shaker at 100 rpm for 5 minutes. The Tween was then removed and transferred to a 384-well clear-bottom plate and replaced with 15 μL isopropanol. Plates were again agitated for 5 minutes at RT, then isopropanol was transferred to the 384-well plate. Absorbance was then read at 590 nm on a plate reader, with 660 nm used as a reference. The ratio of Tween soluble MTT to isopropanol soluble (Tween-insoluble) MTT was calculated for each sample, then normalized to the vehicle group average.

[7] = target: Tau-Fyn interaction (Homo sapiens (Human), UniProt P10636); test: Tau-Fyn PLA screening in HEK-293 cells; type: cell-based; conditions: compound 15 μM, 24 hours
Tau-Fyn interaction, sequence (P10636 other isoform, or with tags, fused parts or gaps): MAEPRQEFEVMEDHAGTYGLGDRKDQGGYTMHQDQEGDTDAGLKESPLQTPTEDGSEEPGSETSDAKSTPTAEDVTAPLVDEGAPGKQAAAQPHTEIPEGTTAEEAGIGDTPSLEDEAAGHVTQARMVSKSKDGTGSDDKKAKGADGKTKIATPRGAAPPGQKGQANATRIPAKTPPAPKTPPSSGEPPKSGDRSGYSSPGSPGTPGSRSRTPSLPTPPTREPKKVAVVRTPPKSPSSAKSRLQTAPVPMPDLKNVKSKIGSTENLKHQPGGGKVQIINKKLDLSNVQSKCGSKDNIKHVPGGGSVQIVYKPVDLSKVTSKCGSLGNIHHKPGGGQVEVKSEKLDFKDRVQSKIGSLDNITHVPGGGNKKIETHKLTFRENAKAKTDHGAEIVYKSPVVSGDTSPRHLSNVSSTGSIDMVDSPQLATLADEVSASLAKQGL
Procedure: Tau-Fyn PLA screening in HEK-293 cells: For Tau-Fyn PLA in HEK-293 cells, we used the same plasmids as before (Rush, et al. (2020) Neurobiol Dis 134, 104668): human 4R2N Tau with an N-terminal mKate2 tag in a pcDNA3.1 vector and human Fyn with an N-terminal Myc tag in a pCMV-Sport6 vector grown in Stellar E. coli. HEK-293 cells were plated on coverslips coated with PDL and laminin in a 24-well plate in DMEM supplemented with 10% FBS and 1% PenStrep. Cells were transfected with 125 ng of Tau-mKate2 and Fyn plasmids with 1.5 μL Fugene in plain DMEM. After 24 hours, compound was applied at 15 μM. Twenty-four hours after application, cells were fixed. PLA protocol was the same as above except for different primary antibodies (Tau5 1:500, Fyn3 1:250). After image acquisition, PLA density was calculated as PLA puncta (as above) divided by cell area to account for differences in confluency. Cell area was defined with ImageJ as % Area after theresholding Tau-mKate2 fluorescence because it filled the cells evenly. Puncta/cell area was then normalized to vehicle-treated slides from that experiment.

[8] = Table 3, read-out: Alpha screen IC50
[9] = Table 2, Tau-FynSH3 inhibitory activity in the AlphaScreen, read-out: IC50

Tau-FynSH3 interaction, sequence (P10636 other isoform, or with tags, fused parts or gaps): as above

Structure (SMILES) | IC50 [1, 8] | ADME Sol (μM) [2] | half-life [3] | half-life [4] | logD [5] | other results
O=C(Cn1c(=O)sc2ccccc21)Nc1nnc(-c2ccccn2)[nH]1 [compound 26] | 1010 nM | Sol = 22 μM | 82 min | > 300 min | 1.5 | –
O=C(CN1C(=O)CCSc2ccccc21)Nc1nnc(-c2ccccn2)[nH]1 [compound 18, 2-(4-OXO-3,4-DIHYDROBENZO[B][1,4]THIAZEPIN-5(21)-YL)-N-(5-(PYRIDIN-2-YL)-4H-1,2,4-TRIAZOL-3-YL)ACETAMIDE] | 3530 nM | Sol = 59 μM | 40 min | 152 min | 1.3 | –
O=C(CCN1C(=O)CSc2ccccc21)Nc1ccc(-n2cncn2)cc1 [compound no. 37, N-(4-(1H-1,2,4-TRIAZOL-1-YL)PHENYL)-3-(3-oxo-2,3-DIHYDRO-4H-BENZO[B][1,4]THIAZIN-4-YL)PROPANAMIDE] | – | – | – | – | – | AlphaScreen activity (in words) [1]: no observed AlphaScreen activity; IC50 [1, 9]: > 100000 nM; Alpha screen IC50 (μM) ([1]; Table 3): Inactive; Aβ toxicity / Aβ-induced membrane trafficking dysfunction, modified MTT assay [6]: did not ameliorate Aβ toxicity
O=C(CN1C(=O)CSc2ccc(F)cc21)Nc1nnc(-c2ccccn2)[nH]1 [compound 15, 2-(6-FLUORO-3-OXO-2H-BENZO[B][1,4]THIAZIN-4(3H)-YL)-N-(5-(PYRIDIN-2-YL)-4H-1,2,4-TRIAZOL-3-YL)ACETAMIDE] | 1080 nM | Sol = 65 μM | 53 min | 238 min | 1.8 | –
CC1(C)Sc2ccccc2N(CC(=O)Nc2nnc(-c3ccccn3)[nH]2)C1=O [compound 19] | 1500 nM | Sol = 20 μM | 8 min | 28 min | 1.3 | –
O=C(CCN1CCSc2ccccc21)Nc1nnc(-c2ccccn2)[nH]1 [compound no. 57] | – | – | – | – | – | Aβ toxicity / Aβ-induced membrane trafficking dysfunction, modified MTT assay [6]: did not; Tau-Fyn interaction in cells, Tau-Fyn PLA in HEK-293 cells [7]: did not reduce Tau-Fyn interaction in cells
O=C(CN1CCSc2cc(C(=O)O)ccc21)Nc1nnc(-c2ccccn2)[nH]1 [compound 64] | – | – | – | – | – | IC50 [1, 9]: < 200 nM; MLM t1/2 ([3]; Table 2): >5 h
O=C(CN1CCSc2cc(Cl)ccc21)Nc1nnc(-c2ccccn2)[nH]1 [compound 58] | – | – | – | – | – | Solubility [2]: <1 µM
Cc1ccc2c(c1)SCCN2CC(=O)Nc1nnc(-c2ccccn2)[nH]1 [compound 60] | – | – | – | – | – | Solubility [2]: <1 µM
O=C(CN1C(=O)COc2cc(F)ccc21)Nc1nnc(-c2ccccn2)[nH]1 [compound 46, 2-(7-FLUORO-3-OXO-2,3-DIHYDRO-4H-BENZO[B][1,4]OXAZIN-4-YL)-N-(5-(PYRIDIN-2-YL)-4H-1,2,4-TRIAZOL-3-YL)ACETAMIDE] | 2960 nM | – | – | – | – | –
O=C(CN1C(=O)CCc2ccccc21)Nc1nnc(-c2ccccn2)[nH]1 [compound no. 2, 2-(2-OXO-3,4-DIHYDROQUINOLIN-1(2H)-YL)-N-(5-(PYRIDIN-2-YL)-4H-1,2,4-TRIAZOL-3-YL)ACETAMIDE] | – | – | – | – | – | IC50 [1, 9]: 2720 nM
Cc1ccc2c(c1)OCC(=O)N2CC(=O)Nc1nnc(-c2ccccn2)[nH]1 [compound 53, 2-(7-METHYL-3-OXO-2,3-DIHYDRO-4H-BENZO[B][1,4]OXAZIN-4-YL)-N-(5-(PYRIDIN-2-YL)-4H-1,2,4-TRIAZOL-3-YL)ACETAMIDE] | 1600 nM | – | – | – | – | –
